pIC50: −log10 of the molar value.
Biological target: T1, UDP-3-O-acyl-N-acetylglucosamine deacetylase (Pseudomonas aeruginosa (strain ATCC 15692 / DSM 22644 / CIP 104116 / JCM 14847 / LMG 12228 / 1C / PRS 101 / PAO1), UniProt P47205)
T1 sequence (P47205 whole entry): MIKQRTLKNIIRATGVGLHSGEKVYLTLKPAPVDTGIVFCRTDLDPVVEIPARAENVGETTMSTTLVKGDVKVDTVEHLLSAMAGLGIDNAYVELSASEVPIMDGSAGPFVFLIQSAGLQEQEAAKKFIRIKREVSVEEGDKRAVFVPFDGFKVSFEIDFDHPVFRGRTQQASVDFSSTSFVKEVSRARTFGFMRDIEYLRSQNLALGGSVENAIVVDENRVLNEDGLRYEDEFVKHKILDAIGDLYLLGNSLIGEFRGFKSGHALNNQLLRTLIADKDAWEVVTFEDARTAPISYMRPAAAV
Assay: LpxC Enzymatic Activity Assay
Method: The experimental procedure is briefly described as follows: The test compound was first dissolved in DMSO to prepare a 10 mM stock solution. The reaction was carried out in a 96-well microplate. First, 20 μL of recombinant Pseudomonas aeruginosa LpxC (purchased from Signalway Antibody, product number AP74647-2) was added to each well, with a final concentration of 5 nM. 5 μL of the compound to be tested was then added, and the compound was diluted 4 times to 8 concentration points with a concentration range of 0.61-10,000 nM. 5 μL of LpxC substrate UDP-3-O—(R-3-hydroxydecanoyl)-GlcNAc (purchased from Biosynth Carbosynth, product number: mu75071) was added, with a final concentration of the substrate of 10 μM. The plate was incubated at 25° C. for 120 minutes. Then 20 μL of 2.0 mg/mL fluorescamine (purchased from sigmaaldrich, product number: F9015, solvent: 1:1 dimethylformamide/acetonitrile) was added to the reaction system, and mixed well for 10 minutes of reaction. Finally, 50 μL of 200 mM sodium phosphate buffer (pH 8.0) was added to terminate the reaction. Reading was carried out using a microplate reader (BMG), and the excitation and emission wavelengths were 390 and 495 nm respectively.

| SMILES | pIC50 |
| --- | --- |
| C[C@H](O)c1nccn1Cc1cc(-c2ccc(C#Cc3ccc(N4CCN(C)CC4)cc3)cc2)on1 [US20240382465, Example 65] | 7.19 |
| C[C@H](O)c1nccn1Cc1cc(-c2ccc(C#Cc3ccc(NC4CCOCC4)cc3)cc2)on1 [US20240382465, Example 66] | 7.17 |
